Measured values: patent publication US9808477B2 (Macau University of Science and Technology, priority 2015, dated 2017)

Key:
[1] = system: A2780/T cells (PTX-resistant, ABCB1-overexpressing ovarian cancer cells); assay: cells; type: cell-based, human; conditions: Homo sapiens, A2780, 48 h, A2780/T, 48 h, SRB, drug alone (no nobiletin); read-out: IC50 ± SD
Description: (§1) Sulphorhodamine B (SRB) assays were used for cell density determination, based on sensitive measure of total cellular protein, which perform similarly compared with other proliferation assays such as MTT assay. Briefly, cells were seeded into flat bottomed 96-well plates at an initial density of 7.5×10^3 per well before treatment. […] After removing the medium, cells were fixed in 10% trichloroacetic acid for 1 h at 4° C. and then washed with water five times. 0.4% SRB dissolved in 1% v/v acetic acid was added and incubated […] for staining. The cells were quickly washed with 1% acetic acid and left to dry overnight. The protein bound SRB was solubilized by adding 200 μl 10 mM Tris buffer per well and was measured at wavelengths 490 nm using a plate reader (Spectra MAX 250; Molecular Devices, Sunnyvale, Calif.). The optical density of SRB in each well is directly proportional to the cell number.

in vitro = type: cell-based; conditions: human
Description: as §1

A2780/T cells [2] = assay: Colony formation assay; type: cell-based, human; conditions: 12 days
Source text: The A2780/T cells were trypsinized and plated in fresh culture medium at a density of 600 cells/9.6 cm^2 plate. Subsequently, the cells were fixed with 70% ethanol and stained with crystal violet (0.5% in ethanol). The plates were rinsed with phosphate buffered saline (PBS), and the colony numbers were counted using the software of Quantity one-Colony counting.

A2780/T cells [3] = assay: Combination index, Chou-Talalay method (CalcuSyn); type: cell-based, human
A2780/T cells [4] = assay: Intracellular accumulation of doxorubicin and Flutax-2; type: cell-based, human; conditions: 8 h, 4.5 μM nobiletin or 20 μM QND
A2780 cells = assay: as above; type: cell-based, human; conditions: parental A2780, nobiletin 4.5 μM
Description: A2780 or A2780/T cells (5×10^6) were cultured on the cover glass (ISO LAB 20×20 mm). […] After treatment, cells were fixed in 4 wt % formaldehyde (Sigma-Aldrich). Nuclear DNA was stained with 1 μg/mL blue-fluorescent DAPI (1 mg/mL in H2O stock solution; Invitrogen D1306). One drop of fluorescent preservation solution (fluorsave reagent, CALBIOCHEM) was added before observation. Imaging was carried out for comparing the intracellular accumulation of DOX and flutax-2 with a Fluorescence Microscopy (Leica DM2500, Leica, Germany).
Cells were detached, re-suspended in 500 μl of PBS after washed twice with cold PBS, and analyzed by flow cytometry (BD FACS Aria, BD Biosciences, San Jose, Calif.). Excitation and emission wavelengths (nm) used for DOX and flutax-2 were as follows: 480 to 585; and 496 to 524.

[5] = biological target: T1, recombinant human ABCB1 membranes (P-gp ATPase) (Homo sapiens, UniProt P08183); assay: ABCB1 ATPase activity assay (PgpGlo); type: biochemical
T1 construct: purchased Promega
Description: Sodium orthovanadate (Na3VO4) was used as an ABCB1 ATPase inhibitor. […] Luminescence was initiated by ATP detection buffer. The plate (white opaque 96-well, corning, USA) was further incubated at room temperature for […] to develop luminescent signal, and was read with luminometer (infinite M200 PRO, TECAN, Switzerland).

[6] = system: MDR1 mRNA in A2780/T cells; assay: RT-PCR analysis of MDR1 mRNA; type: cell-based, human; conditions: nobiletin at concentrations used in reversal assays, 48 h
Description: RT-PCR was performed to evaluate MDR1 mRNA expression. mRNA from cell lysates were purified by binding to poly(dT) magnetic beads (Life technologies) and reverse transcribed by using SuperScript II (Life technologies). Standard quantitative RT-PCR was performed in duplicates at least two to three times by using SYBR Green (Molecular Probes) protocols on the ViiA™ 7 Real-Time PCR System (Life technologies). The primer sequences: 5′-[…]-3′ (SEQ ID NO:1) and 3′-[…]-5′ (SEQ ID NO:2) for MDR1, and 5′-[…]-3′ (SEQ ID NO:3) and 3′-[…]-[…]-5′ (SEQ ID NO:4) for control gene eukaryotic translation initiation factor (TIF). RT-PCR data were normalized by measuring average cycle threshold (Ct) ratios between candidate genes and control gene TIF.

[7] = system: P-gp, p53, AKT/ERK, Nrf2 in A2780/T cells; assay: Western blot analysis; type: cell-based, human
Description: The total cellular samples were harvested and rinsed twice with ice-cold PBS buffer. Cell extracts were lysed in RIPA buffer (50 mM Tris (pH 7.4), 150 mM NaCl, 1% Triton X-100, 1% sodium deoxycholate, 0.1% SDS, sodium orthovanadate, sodium fluoride and EDTA) containing protease inhibitor cocktails (Roche Life Science, USA). Protein concentration was determined using the BCA protein assay kit. Equal amounts of cell lysates were resolved by SDS-PAGE and subsequently electrophoretically transferred onto PVDF membranes (Millipore, Darmstadt, Germany). After blocking in tris-buffered saline containing 0.1% of Tween20 (TBST) with 5% (w/v) skim milk (Nestle Carnation, New Zealand) for 2 h at room temperature, the membranes were incubated with primary and secondary antibodies and subsequently visualized with an enhanced chemiluminescence detection kit (Thermo Scientific™ SuperSignal™ West Pico Chemiluminescent Substrate, USA). β-Actin was used as the loading control for the experimental data analysis.

[8] = system: prostate cancer cell lines; conditions: several prostate cancer cell lines; read-out: IC50, growth inhibition; cited from earlier work
Caco-2 cells = conditions: nobiletin 20 μM; cited from earlier work
[9] = system: ABCB1 transfected cell line LLC-GA5-COL300; conditions: nobiletin 20 μM; cited from earlier work
[10] = rats, single administration 50 mg/kg by gavage; cited from earlier work

T1 sequence (P08183 whole entry): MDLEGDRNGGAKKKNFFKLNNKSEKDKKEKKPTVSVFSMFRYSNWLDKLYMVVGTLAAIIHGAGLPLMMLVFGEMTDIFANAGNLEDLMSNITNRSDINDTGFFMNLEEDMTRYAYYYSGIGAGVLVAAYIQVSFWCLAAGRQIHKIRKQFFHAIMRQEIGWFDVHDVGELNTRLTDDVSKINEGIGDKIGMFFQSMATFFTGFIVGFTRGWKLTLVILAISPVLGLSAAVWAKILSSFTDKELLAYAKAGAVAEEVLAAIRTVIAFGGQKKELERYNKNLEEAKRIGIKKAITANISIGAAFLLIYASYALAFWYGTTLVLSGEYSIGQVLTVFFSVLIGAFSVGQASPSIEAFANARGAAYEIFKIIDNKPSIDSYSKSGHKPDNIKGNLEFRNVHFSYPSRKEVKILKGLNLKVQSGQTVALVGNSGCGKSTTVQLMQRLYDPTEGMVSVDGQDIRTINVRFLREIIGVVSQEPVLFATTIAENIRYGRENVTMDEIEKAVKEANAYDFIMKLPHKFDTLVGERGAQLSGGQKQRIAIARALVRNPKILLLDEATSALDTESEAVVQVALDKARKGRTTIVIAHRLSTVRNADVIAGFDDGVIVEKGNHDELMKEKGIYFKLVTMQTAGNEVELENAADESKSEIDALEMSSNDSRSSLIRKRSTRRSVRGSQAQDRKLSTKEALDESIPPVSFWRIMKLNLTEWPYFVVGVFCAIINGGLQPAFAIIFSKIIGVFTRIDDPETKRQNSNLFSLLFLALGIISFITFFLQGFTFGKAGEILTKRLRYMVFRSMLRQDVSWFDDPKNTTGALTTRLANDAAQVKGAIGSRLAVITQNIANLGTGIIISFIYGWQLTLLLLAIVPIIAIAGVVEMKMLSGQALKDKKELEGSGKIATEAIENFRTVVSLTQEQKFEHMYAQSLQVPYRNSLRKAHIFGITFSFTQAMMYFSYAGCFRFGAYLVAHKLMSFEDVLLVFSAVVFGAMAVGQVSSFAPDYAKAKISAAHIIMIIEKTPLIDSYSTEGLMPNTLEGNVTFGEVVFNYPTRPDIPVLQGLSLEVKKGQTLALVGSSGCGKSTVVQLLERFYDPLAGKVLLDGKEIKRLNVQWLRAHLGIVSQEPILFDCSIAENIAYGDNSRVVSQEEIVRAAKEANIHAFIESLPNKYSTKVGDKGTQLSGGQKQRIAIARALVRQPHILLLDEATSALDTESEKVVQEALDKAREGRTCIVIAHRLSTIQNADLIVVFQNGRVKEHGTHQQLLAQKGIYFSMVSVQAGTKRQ

COc1ccc(-c2cc(=O)c3c(OC)c(OC)c(OC)c(OC)c3o2)cc1OC [nobiletin]
IC50 [1]: 31.6 µM
viability at 9 µM (in vitro): > 90%
inhibition of colony formation, single agent (A2780/T cells [2]; 9 μM nobiletin alone or 0.94 μM PTX alone): no inhibition
inhibition of colony formation, combination (A2780/T cells [2]; different concentrations of nobiletin with 0.94 μM PTX): Complete inhibition
EC50 (A2780/T cells [3]; Homo sapiens, A2780, read-out: Dose N at Fa = 0.5 (ED50), CalcuSyn simulation, A2780/T, nobiletin dose, alone or in the combination): 36 µM
decrease of the ED50 dose of PTX (A2780/T cells [3]; combination with 0.286 μM nobiletin, A2780/T): 200 fold
intracellular accumulation of DOX (A2780/T cells [4]; 5 μM DOX): higher than that in untreated A2780/T
intracellular accumulation of Flutax-2 (A2780/T cells [4]; Flutax-2 1 μM): higher than that in untreated A2780/T
DOX and Flutax-2 levels (A2780 cells): no effect
EC50 [5]: 5.88 µM
IC50 [5]: 7.17 µM
maximal stimulation of ATPase activity relative to basal activity ([5]; human, 40 min): 3 fold
expression of MDR1 mRNA [6]: did not significantly alter
phosphorylated AKT/ERK level ([7]; 50 μM nobiletin): significant decrease
phosphorylated AKT and ERK ([7]; PTX and nobiletin, 48 h): significant inhibitory effect
p53 level ([7]; PTX in combination with nobiletin): accumulation of p53
expression of total and phosphorylated AKT and ERK ([7]; nobiletin alone at reversal concentrations): no effect
protein level of ABCB1 ([7]; nobiletin at concentrations used in reversal assays, 48 h): did not significantly alter
protein level of Nrf2 ([7]; nobiletin in combination with 0.94 μM PTX, dose-dependent): reduced
IC50 [8]: ~100 µM
increase of uptake of [3H] vinblastine (Caco-2 cells): 3 fold
increase of uptake of [3H] vinblastine [9]: 1.8 fold
peak plasma level [10]: ~22.5 µM
